Reference: patent US20210122730A1, “GLUCOCORTICOID RECEPTOR MODULATORS” (ORIC Pharmaceuticals, Inc., priority 2017, published 2021)

Assays:
GR = molecular target: T1, GR (Homo sapiens, UniProt P04150); test: In Vitro GR Luciferase Reporter Assay (antagonist mode, CHO-K1-GR-MMTV-Luc reporter cells); format: cell-based; conditions: antagonist mode, 10 nM Dexamethasone
T1 construct: expressed in transfected cells; host or cells: CHO-K1
T1 sequence (P04150 1-777): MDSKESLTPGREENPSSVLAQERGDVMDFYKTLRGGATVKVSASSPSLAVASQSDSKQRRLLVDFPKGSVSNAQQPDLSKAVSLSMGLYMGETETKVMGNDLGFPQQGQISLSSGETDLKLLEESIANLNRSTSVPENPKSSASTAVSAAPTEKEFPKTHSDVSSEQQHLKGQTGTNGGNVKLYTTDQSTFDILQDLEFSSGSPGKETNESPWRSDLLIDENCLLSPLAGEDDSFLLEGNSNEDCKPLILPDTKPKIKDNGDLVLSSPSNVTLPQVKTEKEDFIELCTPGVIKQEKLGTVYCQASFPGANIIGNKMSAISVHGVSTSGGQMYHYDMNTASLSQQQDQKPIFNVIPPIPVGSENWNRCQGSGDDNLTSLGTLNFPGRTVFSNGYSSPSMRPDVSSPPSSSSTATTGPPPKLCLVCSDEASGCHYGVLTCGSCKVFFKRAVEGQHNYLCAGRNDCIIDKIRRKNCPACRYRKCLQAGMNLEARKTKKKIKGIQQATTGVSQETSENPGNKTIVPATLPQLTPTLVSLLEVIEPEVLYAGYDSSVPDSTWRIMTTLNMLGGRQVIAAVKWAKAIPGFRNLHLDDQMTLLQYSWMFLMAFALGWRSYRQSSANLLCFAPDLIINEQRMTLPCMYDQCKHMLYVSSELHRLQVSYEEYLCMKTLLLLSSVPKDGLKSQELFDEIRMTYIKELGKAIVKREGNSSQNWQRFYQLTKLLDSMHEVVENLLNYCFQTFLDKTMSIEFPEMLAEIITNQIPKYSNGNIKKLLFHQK
Procedure, shortened: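 Antagonist mode: compounds (8 serial 1:5 dilutions) added to GR-MMTV-luciferase CHO-K1 reporter cells co-exposed to 10 nM dexamethasone final, in phenol red-free DMEM plus 10% CSS. After roughly 18-24 h at 37° C, OneGlo luminescence read and IC50 calculated.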

CYP2C8 = molecular target: T2, CYP2C8 (Homo sapiens, UniProt P10632); test: CYP Inhibition Assay (CYP2C8, human liver microsomes, paclitaxel substrate); format: in vitro ADME; conditions: pH 7.4; pooled human liver microsomes 0.1 mg/mL, probe substrate paclitaxel
T2 construct: Pooled human microsomes were obtained from Sekisui XenoTech, KS; tissue Sekisui XenoTech, KS; host or cells: pooled human liver microsomes
T2 sequence (P10632 1-490): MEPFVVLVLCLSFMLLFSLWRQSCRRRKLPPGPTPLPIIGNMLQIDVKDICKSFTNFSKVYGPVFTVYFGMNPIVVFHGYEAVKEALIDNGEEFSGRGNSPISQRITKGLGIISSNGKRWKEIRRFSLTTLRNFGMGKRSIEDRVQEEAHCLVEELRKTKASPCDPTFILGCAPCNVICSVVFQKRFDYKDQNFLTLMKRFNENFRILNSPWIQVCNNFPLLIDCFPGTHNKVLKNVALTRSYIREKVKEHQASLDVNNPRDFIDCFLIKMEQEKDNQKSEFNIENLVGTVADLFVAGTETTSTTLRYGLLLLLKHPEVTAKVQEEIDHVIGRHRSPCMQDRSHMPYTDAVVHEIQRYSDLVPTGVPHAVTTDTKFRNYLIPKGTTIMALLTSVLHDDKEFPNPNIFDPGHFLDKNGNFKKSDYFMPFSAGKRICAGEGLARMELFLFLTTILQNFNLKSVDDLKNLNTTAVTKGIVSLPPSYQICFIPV
Method: Example B: CYP Inhibition Assay
Objective: To assess the % inhibition of test compounds against CYP2C8 enzyme in human liver microsomes.
Pooled human microsomes were obtained from Sekisui XenoTech, KS, and were used for in vitro assessment of compound inhibitory potential of the major drug metabolizing human CYP enzymes.
Test compounds were dissolved in DMSO as 10 mM stock solutions and diluted to 200 µM in acetonitrile as working solutions. The total concentrations of DMSO and acetonitrile were 0.02% and 0.5%, respectively, in the assay.
The assay was performed in duplicate in a 96-well plate. The reaction mixture ([…]) containing a final concentration of 0.1 mg/mL pooled human liver microsomes, 50 mM potassium phosphate, pH 7.4 buffer, was re-warmed at 37° C. for 5 minutes. The reaction was initiated with NADPH solution which was at 1 mM final concentration, and carried out for 5 minutes at 37° C. It was terminated by the addition of 3-fold volume of quench solution (1:1 acetonitrile:methanol with 0.1% formic acid and the internal standard of tolbutamide). The sample was vortexed, centrifuged at 4,000 rpm for 15 min at 4° C. The incubation in the presence of vehicle (0.02% DMSO and 0.5% acetonitrile) was used as the enzyme activity control. The analyses of metabolite 6α-hydroxypaclitaxel in supernatant was performed with LC-MS/MS method (Sciex API 4500 Qtrap coupled to a Shimadzu LC-20AD HPLC).
The CYP enzyme activity was determined based on the formation of 6a-hydroxypaclitaxel metabolite. The % inhibition was calculated using this equation: % Inhibition=100×(1−Ainactivator/Avehicle), where Ainactivator is the CYP enzyme activity in the presence of test compound, and Avehicle is the CYP activity in the presence of vehicle.

Row | IC50 (GR) [nM] | inhibition at 5 min (CYP2C8) [%] | Structure (SMILES)
1 | ≤ 100 | 50 to 75 | Cn1ccc(S(=O)(=O)N(CC2CC2)[C@H]2CCC3=Cc4c(cnn4-c4ccc(F)cc4)C[C@]3(C(=O)c3cc(C(F)F)ccn3)C2)n1 [Example 298, N-(cyclopropylmethyl)-N-((4aS,6S)-4a-(4-(difluoromethyl)picolinoyl)-1-(4-fluorophenyl)-4,4a,5,6,7,8-hexahydro-1H-benzo[f]indazol-6-yl)-1-methyl-1H-pyrazole-3-sulfonamide]
2 | ≤ 100 | 25 to 50 | Cn1cc(S(=O)(=O)[C@@]2(F)CCC3=Cc4c(cnn4-c4ccc(F)cc4)C[C@]3(C(=O)c3cc(C(F)(F)F)ccn3)C2)cn1 [Example 202, ((4aS,6S)-6-fluoro-1-(4-fluorophenyl)-6-((1-methyl-1H-pyrazol-4-yl)sulfonyl)-1,4,5,6,7,8-hexahydro-4aH-benzo[f]indazol-4a-yl)(4-(trifluoromethyl)pyridin-2-yl)methanone]
3 | ≤ 100 | 25 to 50 | O=C(c1cc(C(F)(F)F)ccn1)[C@]12Cc3cnn(-c4ccc(F)cc4)c3C=C1CC[C@H](N(CC(F)F)S(=O)(=O)c1ccc(Cl)nc1)C2 [Example 341, 6-chloro-N-(2,2-difluoroethyl)-N-((4aS,6S)-1-(4-fluorophenyl)-4a-(4-(trifluoromethyl)picolinoyl)-4,4a,5,6,7,8-hexahydro-1H-benzo[f]indazol-6-yl)pyridine-3-sulfonamide]
4 | ≤ 100 | 25 to 50 | Cn1cnc(S(=O)(=O)N(C2CC2)[C@H]2CCC3=Cc4c(cnn4-c4ccc(F)cc4)C[C@]3(C(=O)c3cc(F)ccn3)C2)n1 [Example 347, N-cyclopropyl-N-((4aS,6S)-1-(4-fluorophenyl)-4a-(4-fluoropicolinoyl)-4,4a,5,6,7,8-hexahydro-1H-benzo[f]indazol-6-yl)-1-methyl-1H-1,2,4-triazole-3-sulfonamide]
5 | ≤ 100 | 50 to 75 | Cn1ccc(S(=O)(=O)N(C2CC2)[C@H]2CCC3=Cc4c(cnn4-c4ccc(F)cc4)C[C@]3(C(=O)c3cc(C(F)F)ccn3)C2)n1 [Example 258, N-cyclopropyl-N-((4aS,6S)-4a-(4-(difluoromethyl)picolinoyl)-1-(4-fluorophenyl)-4,4a,5,6,7,8-hexahydro-1H-benzo[f]indazol-6-yl)-1-methyl-1H-pyrazole-3-sulfonamide]
6 | ≤ 100 | 25 to 50 | O=C(c1cc(C(F)(F)F)ccn1)[C@]12Cc3cnn(-c4ccc(F)cc4)c3C=C1CC[C@H](N(C1COC1)S(=O)(=O)c1ccc(F)cc1)C2 [Example 204, 4-fluoro-N-((4aS,6S)-1-(4-fluorophenyl)-4a-(4-(trifluoromethyl)picolinoyl)-4,4a,5,6,7,8-hexahydro-1H-benzo[f]indazol-6-yl)-N-(oxetan-3-yl)benzenesulfonamide]
7 | ≤ 100 | 25 to 50 | Cn1cnc(S(=O)(=O)N(C2CC(F)(F)C2)[C@H]2CCC3=Cc4c(cnn4-c4ccc(F)cc4)C[C@]3(C(=O)c3cc(C(F)(F)F)ccn3)C2)n1 [Example 329, N-(3,3-difluorocyclobutyl)-N-((4aS,6S)-1-(4-fluorophenyl)-4a-(4-(trifluoromethyl)picolinoyl)-4,4a,5,6,7,8-hexahydro-1H-benzo[f]indazol-6-yl)-1-methyl-1H-1,2,4-triazole-3-sulfonamide]
8 | ≤ 100 | 25 to 50 | CCN([C@H]1CCC2=Cc3c(cnn3-c3ccc(F)cc3)C[C@]2(C(=O)c2cc(C(F)(F)F)ccn2)C1)S(=O)(=O)c1ccn(C)n1 [Example 155, N-ethyl-N-((4aS,6S)-1-(4-fluorophenyl)-4a-(4-(trifluoromethyl)picolinoyl)-4,4a,5,6,7,8-hexahydro-1H-benzo[f]indazol-6-yl)-1-methyl-1H-pyrazole-3-sulfonamide]
9 | ≤ 100 | ≤ 25 | O=C(c1cc(C(F)(F)F)ccn1)[C@]12Cc3cnn(-c4ccc(F)cc4)c3C=C1CC[C@H](N(CC1CC1)S(=O)(=O)c1ccc(F)cc1)C2 [Example 273, N-(cyclopropylmethyl)-4-fluoro-N-((4aS,6S)-1-(4-fluorophenyl)-4a-(4-(trifluoromethyl)picolinoyl)-4,4a,5,6,7,8-hexahydro-1H-benzo[f]indazol-6-yl)benzenesulfonamide]
10 | ≤ 100 | 50 to 75 | O=C(c1cc(C(F)F)ccn1)[C@]12Cc3cnn(-c4ccc(F)cc4)c3C=C1CC[C@H](N(C1CC1)S(=O)(=O)c1ccc(F)cc1)C2 [Example 247, N-cyclopropyl-N-((4aS,6S)-4a-(4-(difluoromethyl)picolinoyl)-1-(4-fluorophenyl)-4,4a,5,6,7,8-hexahydro-1H-benzo[f]indazol-6-yl)-4-fluorobenzenesulfonamide]
11 | ≤ 100 | 75 to 90 | CC(C)N([C@H]1CCC2=Cc3c(cnn3-c3ccc(F)cc3)C[C@]2(C(=O)c2cc(Cl)ccn2)C1)S(=O)(=O)c1cnn(C)n1 [Example 269, N-((4aS,6S)-4a-(4-chloropicolinoyl)-1-(4-fluorophenyl)-4,4a,5,6,7,8-hexahydro-1H-benzo[f]indazol-6-yl)-N-isopropyl-2-methyl-2H-1,2,3-triazole-4-sulfonamide]
12 | ≤ 100 | 50 to 75 | Cn1cc(S(=O)(=O)N(C2CC2)[C@H]2CCC3=Cc4c(cnn4-c4ccc(F)cc4)C[C@]3(C(=O)c3cc(Cl)ccn3)C2)nn1 [Example 268, N-((4aS,6S)-4a-(4-chloropicolinoyl)-1-(4-fluorophenyl)-4,4a,5,6,7,8-hexahydro-1H-benzo[f]indazol-6-yl)-N-cyclopropyl-1-methyl-1H-1,2,3-triazole-4-sulfonamide]
13 | ≤ 100 | 50 to 75 | CC(C)N([C@H]1CCC2=Cc3c(cnn3-c3ccc(F)cc3)C[C@]2(C(=O)c2ncc(C(F)(F)F)s2)C1)S(=O)(=O)c1ccn(C)n1 [Example 182, N-((4aS,6S)-1-(4-fluorophenyl)-4a-(5-(trifluoromethyl)thiazole-2-carbonyl)-4,4a,5,6,7,8-hexahydro-1H-benzo[f]indazol-6-yl)-N-isopropyl-1-methyl-1H-pyrazole-3-sulfonamide]
14 | ≤ 100 | 25 to 50 | CCN([C@H]1CCC2=Cc3c(cnn3-c3ccc(F)cc3)C[C@]2(C(=O)c2ncc(C(F)(F)F)s2)C1)S(=O)(=O)c1ncn(C)n1 [Example 356, N-ethyl-N-((4aS,6S)-1-(4-fluorophenyl)-4a-(5-(trifluoromethyl)thiazole-2-carbonyl)-4,4a,5,6,7,8-hexahydro-1H-benzo[f]indazol-6-yl)-1-methyl-1H-1,2,4-triazole-3-sulfonamide]
